Experiments:
Pen. steckii = assay: preservative activity against test fungus in calcitonin nasal composition; settings: chlorbutanol at 0.6% in calcitonin nasal pharmaceutical compositions
Source text: Very many well-known preserving agents present themselves for possible use in calcitonin pharmaceutical compositions. However experiment has shown that not all are suitable for practical use in relation to a calcitonin nasal spray.

[1] = tested on: ciliary beating frequency of rat trachea; assay: ciliary beating frequency, microphoto-oscillographic method of L. Chevance et al; settings: at 0.6%, within 20 minutes
Description: 70, […] (1970). These are just some of the disadvantageous effects that can be encountered.
Moreover the compositions are well tolerated as indicated in standard tests, e.g. in that less than 50% inhibition of ciliary beating frequency is observed up to 20 minutes after administration, according to the microphoto-oscillographic method of L. Chevance et al, Acta Otolaryng. 70, 26-28 (1970).

[2] = relative bio-availability study nasal administration/intra-muscular injection of salmon calcitonin in healthy volunteers; type: in vivo; settings: for time serum levels remain above the detectability limit: detectability limit 26 pg/ml
Description: The study is conducted with 12 healthy volunteers, 6 male and 6 female, with a body weight of from 50 to 85 kg. Each subject receives 4 administrations of salmon calcitonin, one intra-muscularly and 3 nasally. Administration is effected at the following dosages:
B. Intra-muscular: 50 MRC units.
Nasal administration is effected using composition in accordance with example 1 and a spray-applicator delivering 55 MRC units per individual spray dosage. For the purposes of administration the subject is laid on the back with the head tilted backwards for 5 minutes. The nostrils are cleaned by blowing of the nose immediately prior to administration.
Intra-muscular administration is effected by injection of a single 1 ml dose of a composition similar to that of example 1, but omitting benzalkonium chloride and containing 50 MRC units into the glutaeus medius muscle.
Each subject receives the 4 administrations in randomized sequence, and at least 3 days are allowed between consecutive administrations. Each administration is effected in the morning after a light breakfast from which milk, butter and cheese is excluded. 100 ml water or orange juice is taken hourly following treatment to maintain urinary output. Further food is allowed not earlier than 4 hours after treatment.
Blood samples are taken immediately prior to administration (control), and at intervals of 5, 15, 30, 60, 90, 120, 180, 240, 360 and 480 minutes following administration. For the control a 20 ml sample is taken. All subsequent samples are 2 ml samples.
The concentration of salmon calcitonin in each serum sample is measured by radio-immuno-assay. Blood-pressure is controlled during the course of the trial and urine-samples tested for possible adverse reaction. Occurrence of side-effects, e.g. symptoms of nausea, is noted.
The AUC ("area under curve") for salmon calcitonin plasma concentration is calculated statistically, once employing all value, including those below the 26 pg/ml detectability limit, once with values below the detectability limit read as zero. Maximal plasma concentration and time at which this is reached are also determined. Relative bio-availability for nasal administration is determined from the relative dosage-standardized AUC (i.e. based on 50 MRC units) following nasal and intra-muscular administration.

SMILES	time required to reduce the cell count to less than 0.1% (Pen. steckii)	inhibition of the ciliary beating frequency [1]	AUC values compared with 50 MRC units i.m. ([2]; 110 MRC units intra-nasally)	AUC values compared with 50 MRC units i.m. ([2]; 220 MRC units intra-nasally)	F rel ([2]; both sexes, plasma, inhaled or intranasal, nasal vs intra-muscular, human, read-out: bio-availability (blood-plasma concentration) following nasal administration relative to levels achieved on intra-muscular injection) [%]	time serum levels remain above the detectability limit ([2]; i.m. application of 50 MRC units) [h]	time serum levels remain above the detectability limit ([2]; nasal application of 110 MRC units) [h]	adverse side-effects following nasal administrations ([2]; nasal, up to the highest dosage of 220 MRC units)
CC(C)(O)C(Cl)(Cl)Cl [chlorbutanol]	more than 3 days	more than 50%	–	–	–	–	–	–
CC(C)C[C@H](NC(=O)[C@H](CCCCN)NC(=O)CNC(=O)[C@H](CC(C)C)NC(=O)[C@@H](NC(=O)[C@@H]1CSSC[C@H](N)C(=O)N[C@@H](CO)C(=O)N[C@@H](CC(N)=O)C(=O)N[C@@H](CC(C)C)C(=O)N[C@@H](CO)C(=O)N[C@@H]([C@@H](C)O)C(=O)N1)C(C)C)C(=O)N[C@@H](CO)C(=O)N[C@@H](CCC(N)=O)C(=O)N[C@@H](CCC(=O)O)C(=O)N[C@@H](CC(C)C)C(=O)N[C@@H](Cc1c[nH]cn1)C(=O)N[C@@H](CCCCN)C(=O)N[C@@H](CC(C)C)C(=O)N[C@@H](CCC(N)=O)C(=O)N[C@H](C(=O)N[C@@H](Cc1ccc(O)cc1)C(=O)N1CCC[C@H]1C(=O)N[C@@H](CCCNC(=N)N)C(=O)N[C@H](C(=O)N[C@@H](CC(N)=O)C(=O)N[C@H](C(=O)NCC(=O)N[C@@H](CO)C(=O)NCC(=O)N[C@H](C(=O)N1CCC[C@H]1C(N)=O)[C@@H](C)O)[C@@H](C)O)[C@@H](C)O)[C@@H](C)O [salmon calcitonin]	–	–	comparable	comparable	~50	6	8	No adverse side-effects

From patent publication US5733569A, “Galenic compositions comprising calcitonin and their use” (Novartis Corporation, priority 1982, dated 1998)
